From patent US20210169897A1, “Concentrated Fulvestrant Compositions” (Nevakar Inc., priority 2017, published 2021)
≈ marks a conversion by molar mass, not a printed value. Like-named read-outs stand apart in the source and are kept apart here.

Experiments:
[1] = Saturation solubility of fulvestrant in combinations of solvents/detergents (Table 2); assay type: physicochemical
Method: To increase solubility, various other solvents, co-solvents, and surfactants were tested. For example, in some embodiments the monohydroxylated fatty acids (e.g., free ricinoleic acid) in the solvent were substituted with other lipid solvents such as castor oil or oleic acid. […] Here, some formulations including lipid solvents (especially in combination with ethanol and/or benzyl alcohol) can solubilize fulvestrant at a concentration higher than 60 mg/ml. Yet, most of such formulations capable of solubilizing fulvestrant at a higher concentration (e.g., higher than 60 mg/ml) require higher concentration of alcohols (e.g., higher than 30%, etc.), which may cause instability of the formulation (e.g., precipitation of fulvestrant over time, etc.). Moreover, some solvents also required substantial quantities of emulsifier (e.g., Cremophor™ (hydrogenated castor oil reacted with ethylene oxide)), which is not desirable as an ingredient for injection at the tested concentrations. Indeed, it is generally preferred that the fulvestrant compositions and solutions for injection are substantially free (i.e., less than 1% w/v, or less than 0.1% w/v, or less than 0.01% w/v) from surfactants, detergents, and/or emulsifiers.

[2] = background, cited from earlier work

## C[C@]12CC[C@@H]3c4ccc(O)cc4C[C@@H](CCCCCCCCC[S+]([O-])CCCC(F)(F)C(F)(F)F)[C@H]3[C@@H]1CC[C@@H]2O (stereo partly drawn) [Fulvestrant]
[1]; 12.5% ethanol, 75% castor oil, 12.5% Cremophor RH 40 (% w/v), oil or lipid, thermodynamic from solid, No 11 (% w/v): 12.5% Ethanol, 75% Castor Oil, 12.5% Cremophor RH 40, read-out: Solubility
  solubility: 128 mg/mL
[1]; 50% castor oil, 10% Lipoid E 80, 40% ethanol (% w/v), oil or lipid, thermodynamic from solid, No 12 (% w/v): 50% Castor Oil, 10% Lipoid E 80, 40% Ethanol, read-out: Solubility
  solubility: 49.3 mg/mL
[1]; 50% castor oil, 25% ethanol, 25% Cremophor 40 (% w/v), oil or lipid, thermodynamic from solid, No 9 (% w/v): 50% Castor Oil, 25% Ethanol, 25% Cremophor 40, read-out: Solubility
  solubility: 134 mg/mL
[1]; 50% oleic acid, 25% ethanol, 25% Cremophor 40 (% w/v), oil or lipid, thermodynamic from solid, No 8 (% w/v): 50% Oleic Acid, 25% Ethanol, 25% Cremophor 40, read-out: Solubility
  solubility: 130 mg/mL
[1]; 60% castor oil, 18% BA, 13% ethanol, 9% Lipoid E 80 (% w/v), oil or lipid, thermodynamic from solid, No 14 (% w/v): 60% Castor Oil, 18% BA, 13% Ethanol, 9% Lipoid E 80, read-out: Solubility
  solubility: 63 mg/mL
[1]; 70% castor oil, 20% oleic acid, 5% BA, 5% ethanol (% w/v), oil or lipid, thermodynamic from solid, No 16 (% w/v): 70% Castor Oil, 20% Oleic Acid, 5% BA, 5% Ethanol, read-out: Solubility
  solubility: 49.9 mg/mL
[1]; 75% oleic acid, 12.5% ethanol, 12.5% Cremophor RH 40 (% w/v), oil or lipid, thermodynamic from solid, No 10 (% w/v): 75% Oleic Acid, 12.5% Ethanol, 12.5% Cremophor RH 40, read-out: Solubility
  solubility: 113 mg/mL
[1]; 75% oleic acid, 25% castor oil (% w/v), oil or lipid, thermodynamic from solid, No 5 (% w/v): 75% Oleic Acid, 25% Castor Oil, read-out: Solubility
  solubility: 15.5 mg/mL
[1]; 85% castor oil, 12% BA, 3% HP-B-CD (% w/v), oil or lipid, thermodynamic from solid, No 15 (% w/v): 85% Castor Oil, 12% BA, 3% HP-B-CD, read-out: Solubility
  solubility: 17.2 mg/mL
[1]; No 13 (% w/v): 15% Ethanol, 15% Castor Oil, 15% Benzyl Alcohol, 10% Lipoid E 80
  solubility: 45.95 mg/mL
[1]; oil or lipid, thermodynamic from solid, No 6 (% w/v): 49.5% Oleic Acid, 49.5% Castor Oil, 1% Polysorbate 20, read-out: Solubility
  solubility: 22.8 mg/mL
[1]; oil or lipid, thermodynamic from solid, No 7 (% w/v): 74.5% Oleic Acid, 24.5% Castor Oil, 1% Polysorbate 20, read-out: Solubility
  solubility: 15.7 mg/mL
[1]; oil or lipid, thermodynamic from solid, No 17 (% w/v): 10% Ethanol, 65% Castor Oil, 20% Oleic Acid, 5% Benzyl Alcohol, read-out: Solubility
  solubility: 68.8 mg/mL
[1]; oil or lipid, thermodynamic from solid, No 18 (% w/v): 5% Ethanol, 65% Castor Oil, 20% Oleic Acid, 10% Benzyl Alcohol, read-out: Solubility
  solubility: 39.5 mg/mL
[1]; oil or lipid, thermodynamic from solid, No 19 (% w/v): 22.5% Castor Oil, 67.5% Oleic Acid, 5% BA, 5% Ethanol, read-out: Solubility
  solubility: 47.3 mg/mL
[1]; oil or lipid, thermodynamic from solid, No 20 (% w/v): 45% Oleic Acid, 45% Castor Oil, 5% Ethanol, 5% Benzyl Alcohol, read-out: Solubility
  solubility: 43.7 mg/mL
[1]; oil or lipid, thermodynamic from solid, No 21 (% w/v): 5% Cremophor EL 35, 5% Ethanol, 5% Benzyl Alcohol, 85% Castor Oil, read-out: Solubility
  solubility: 24.4 mg/mL
[1]; solvent mixture, oil or lipid, thermodynamic from solid, No 4 (% w/v): 25% Oleic Acid, 75% Castor Oil, read-out: Solubility
  solubility: 18.2 mg/mL
[1]; solvent mixture, oil or lipid, thermodynamic from solid, No 3 (% w/v): 50% Castor Oil, 50% Oleic Acid, read-out: Solubility
  solubility: 20 mg/mL
[1]; solvent/detergent mixture, oil or lipid, thermodynamic from solid, No 1 (% w/v): 99% Oleic Acid, 1% Poly. 20, read-out: Solubility
  solubility: 4.08 mg/mL
[1]; solvent/detergent mixture, oil or lipid, thermodynamic from solid, No 2 (% w/v): 99% Castor Oil, 1% Poly. 20, read-out: Solubility
  solubility: 23.2 mg/mL
[1]; solvent/detergent mixture, oil or lipid, thermodynamic from solid, No 22 (% w/v): 5% HS 15, 5% Ethanol, 5% Benzyl Alcohol, 85% Castor Oil, read-out: Solubility
  solubility: 39.2 mg/mL
[1]; solvent/detergent mixture, oil or lipid, thermodynamic from solid, No 23 (% w/v): 5% Cremophor RH 40, 5% Ethanol, 5% Benzyl Alcohol, 85% Castor Oil, read-out: Solubility
  solubility: 38 mg/mL
[1]; solvent/detergent mixture, oil or lipid, thermodynamic from solid, No 24 (% w/v): 44.5% Oleic Acid, 44.5% Castor Oil, 5% Ethanol, 5% Benzyl Alcohol, 1% Poly. 20, read-out: Solubility
  solubility: 51.9 mg/mL
[1]; solvent/detergent mixture, oil or lipid, thermodynamic from solid, No 25 (% w/v): 67% Oleic Acid, 22% Castor Oil, 5% Ethanol, 5% Benzyl Alcohol, 1% Poly. 20, read-out: Solubility
  solubility: 41 mg/mL
[2]; fulvestrant in benzyl alcohol
  solubility: > 200 mg/mL
[2]; fulvestrant in ethanol
  solubility: > 200 mg/mL
physchem; Cremophor RH40, aqueous with cosolvent or surfactant or cyclodextrin
  solubility: 47.2 mg/mL (≈ 77.9 mM)
physchem; N,N-dimethylacetamide (DCAM), organic solvent or mixture
  solubility: 306 mg/mL (≈ 504 mM)
physchem; PEG 300, organic solvent or mixture
  solubility: 28.3 mg/mL (≈ 46.6 mM)
physchem; PEG 400, organic solvent or mixture
  solubility: 24.8 mg/mL (≈ 40.9 mM)
physchem; benzyl alcohol, organic solvent or mixture
  solubility: 269 mg/mL (≈ 443 mM)
physchem; benzyl benzoate, organic solvent or mixture
  solubility: 3.9 mg/mL (≈ 6.43 mM)
physchem; butyric acid, organic solvent or mixture
  solubility: 318 mg/mL (≈ 524 mM)
physchem; castor oil, oil or lipid
  solubility: 21.2 mg/mL (≈ 34.9 mM)
physchem; dimethylsulfoxide (DMSO), organic solvent or mixture
  solubility: 320 mg/mL (≈ 527 mM)
physchem; ethanol, organic solvent or mixture
  solubility: 445 mg/mL (≈ 734 mM)
physchem; heptanoic acid, organic solvent or mixture
  solubility: 154 mg/mL (≈ 255 mM)
physchem; hexanoic acid, organic solvent or mixture
  solubility: 266 mg/mL (≈ 438 mM)
physchem; octanoic acid, organic solvent or mixture
  solubility: 92.2 mg/mL (≈ 152 mM)
physchem; oleic acid, oil or lipid
  solubility: 4.8 mg/mL (≈ 7.91 mM)
physchem; olive oil, oil or lipid
  solubility: 0.4 mg/mL (≈ 0.659 mM)
physchem; propanoic acid, organic solvent or mixture
  solubility: 319 mg/mL (≈ 526 mM)
physchem; propylene glycol, organic solvent or mixture
  solubility: 39.1 mg/mL (≈ 64.4 mM)
physchem; ricinoleic acid, oil or lipid
  solubility: 26 mg/mL (≈ 42.8 mM)
